Structures can show the parent of a compound that is named as a salt.
Tests used:
[1] = test system: primary mouse cortical neurons; assay: AβO-induced neuronal cell cycle re-entry (CCR), cyclin D1/NeuN/MAP2 triple immunofluorescence; assay type: cell-based; design: induction of CCR in primary neuron cultures: dose or concentration left out as unconfirmed
Procedure: Cortical neuron cultures derived from E17/18 wild type C57/BL6 mouse embryos prepared and maintained as described previously. Cultures were maintained for 16-18 days prior to experimental manipulations.
20 μl aliquots were stored at −80° C. until ready to use. To prepare oligomers, an aliquot was dried in a speed vac for 3 hours, solubilized in 1 mM in dimethyl sulfoxide (Sigma, D2650-5X5ML), placed in a water bath sonicator for 5 minutes, and then supplemented with Neurobasal medium (GIBCO/Life Technologies, 21103-049) to yield a final peptide concentration of 100 μM. The solution was then placed on an orbiting rocker at 4° C. for 48 hours, after which it was centrifuged at 14,000×g in a tabletop microcentrifuge for 15 minutes to pellet large aggregates.
All steps were performed at room temperature unless indicated otherwise. Primary mouse cortical neurons grown on #1.5 thickness, 12 mm round glass coverslips were rinsed once with ice-cold phosphate buffered saline (PBS), and then were fixed in 4% paraformaldehyde in PBS for 12 minutes. Following fixation, the cells were rinsed 3 times for 5 minutes each with ice cold PBS, permeabilized for 15 minutes with PBS containing 0.2% Triton X-100 (Fisher, 9002-93-1), and rinsed 3 times for 5 minutes each with PBS. Next, the cells were blocked with PBST (PBS supplemented with 2% bovine serum albumin (BSA; Roche, 03116956001); and 0.1% Tween 20 (Fisher, 9005-64-5) for 1 hour, after which they were labeled overnight with primary antibodies followed by secondary antibodies for 1 hour. Antibodies were diluted into 2% BSA in PBS, and after each antibody incubation step the cells were rinsed 3 times for 5 minutes each with PBS. Finally, the coverslips were rinsed with ultrapure water and mounted onto slides using Fluormount-G (Southern Biotech, 0100-01) containing 1% 1,4-diazabicyclo[2.2.2]octane (Sigma, D27802-25MG), an anti-quenching agent.
(§1) Cultured neurons and brain sections were imaged on either of two microscopes: 1) Nikon Eclipse Ti equipped with a Yokogawa CSU-X1 spinning disk head, 20×0.75 NA CFI Plan Apo, 40×1.3 NA CFI S Fluor and 60×1.4 NA Plan Apo objectives; 405 nm, 488 nm, 561 nm and 640 nm lasers; and a Hamamatsu Flash 4.0 scientific CMOS camera; or 2) EVOS FL imaging system (Invitrogen). Micrographs were captured using either Nikon Elements or EVOS software. CCR-positive cells were counted using the ImageJ cell counter plugin for brain sections (available at an NIH website), and were counted manually using the EVOS microscope for primary neuron cultures. For cultured neurons (FIGS. 1-4, S5 and S2), 4 biological replicates of >300 neurons were counted per condition per experiment.
To test the hypothesis that neuronal CCR is calcium-dependent we first treated primary mouse cortical neurons with BAPTA-AM, a cell-permeant chelator of intracellular calcium, beginning 30 minutes prior to addition of AβOs to the cultures.
Accordingly, primary neuron cultures were treated with MK-801, an NMDAR inhibitor that blocks calcium entry through the channel pore, beginning 30 minutes before AβOs were added. […] Otherwise identical experiments were performed using 6-cyano-7-nitroquinoxaline-2,3-dione (CNQX) to block plasma membrane AMPA receptors (FIG. 7), 2-aminoethoxydiphenyl borate (2-ABP) to block ER-associated IP3 receptors and TRP channels (FIG. 8), or dantrolene to inhibit ER-associated ryanodine receptors (FIG. 8).

Tg2576 AD model mice = assay: neuronal CCR in vivo, cyclin D1-positive cortical neurons in brain sections after memantine in drinking water; design: species or system mouse; conditions: memantine ~30 mg/kg/day in drinking water from 3 weeks until 2 months of age
Procedure: Brain tissue sections were obtained from mice that were transcardially perfused first with 10 ml of phosphate buffer (PB; 0.1 M sodium phosphate, pH 7.6), followed by 10 ml of 4% paraformaldehyde in PB at a flow rate of 1.5 ml/minute. Next, brains were removed and placed in 4% paraformaldehyde in PB for 24 hours, washed 3 times in PBS, incubated in 30% sucrose overnight, and flash frozen using dry ice. Frozen tissue was stored at −80° C. until ready for sectioning to 40 μm thickness on a Microm HM 505 E cryostat. […]
as §1, with “Micrographs were captured using either Nikon Elements or EVOS software.” left out, “experiment. […]” for “experiment.”

[2] = cited from earlier work
CaMKII = assay: phospho-activated versus total CaMKII by western blotting of AβO-treated cortical neurons; assay type: cell-based, mouse; conditions: 10 μM MK-801, 30 minute pre-treatment; 15 minutes after AβO addition
Procedure: Samples were resolved on 12% SDS polyacrylamide gels, then transferred at 100 V for 1.75 hours onto 0.22 μm pore size nitrocellulose membranes using a Bio-Rad Mini-PROTEAN Tetra Electrophoresis Cell. Following transfer, blots were rinsed once in tris-buffered saline (TBS), blocked for 30-60 minutes in blocking buffer (LI-COR, 927-50000), sequentially incubated in primary antibodies overnight at 4° C. in antibody buffer (1:1 mix of blocking buffer, and TBST: TBS+0.1% Tween-20), then LI-COR infrared-labeled secondary antibodies for 30 minutes. Blots were rinsed 3 times for 5 minutes each using TBST after the primary antibody or TBS after the secondary antibody. Finally, membranes were scanned using a LI-COR Odyssey imaging station.
CaMKII is of particular interest, as it can be activated via calcium influx through NMDAR. We thus tested the hypothesis that AβO-mediated calcium influx through NMDAR activates CaMKII as a mediator of CCR. Again, we treated primary neurons with AβOs with or without a 30 minute MK-801 pre-treatment, and collected the cells at various time points from 0-2 hours after AβO stimulation for western blotting with antibodies to phospho-activated and total CaMKII. […] The AβO-mediated activation of CaMKII necessary for CCR [19] is therefore dependent upon calcium influx through NMDAR.

[3] = 10 μM, 30 minute pre-treatment, 16-18 hours AβOs

In the case of `NCCOB(c1ccccc1)c1ccccc1` [2-ABP, 2-aminoethoxydiphenyl borate], the “AβO-induced neuronal CCR (cyclin D1-positive neurons)” value (shortened to “AβO-induced neuronal CCR”) ([1]; 50 μM 2-APB to block IP3 receptors, 18 hours AβOs) is reported as “none of those inhibitors blocked CCR”.
With `CC12CC3CC(C)(C1)CC(N)(C3)C2` [memantine, 1-amino-3,5-dimethyladamantane hydrochloride] the “AβO-induced neuronal CCR” value [1, 3] was “prevented AβOs from inducing neuronal CCR”, the “neuronal CCR along cortical regions (cyclin D1 immunoreactivity)” value (Tg2576 AD model mice; Tg2576 mice (untreated 8.8%)) was “reduced to WT levels” and the “neuronal CCR along cortical regions (cyclin D1 immunoreactivity)” value (Tg2576 AD model mice; WT mice) was 1.6%. For the same compound, the solubility in water [2] was “soluble in water”.
With `C[C@]12N[C@H](Cc3ccccc31)c1ccccc12` [MK-801, (1S,9R)-1-methyl-16-azatetracyclo[7.6.1.02,7.010,15]hexadeca-2,4,6,10,12,14-hexaene] the “AβO-induced neuronal CCR” value [1, 3] was “blocked the induction of CCR” and the “AβO-mediated transient activation of CaMKII (phosphorylated relative to total CaMKII)” value (CaMKII) was “activation was prevented”.
In the case of `N#Cc1cc2c(cc1[N+](=O)[O-])=NC(=O)C(=O)N=2` [CNQX, 6-cyano-7-nitroquinoxaline-2,3-dione], the “AβO-induced neuronal CCR” value [1, 3] is reported as “none of those inhibitors blocked CCR”.
With `CN[C@H](CC(=O)O)C(=O)O` [NMDA] the “induction of CCR in primary neuron cultures” value ([1]; 30 second shock of NMDA, no AβOs) was “induces CCR”.
In the case of `O=C1CN(/N=C/c2ccc(-c3ccc([N+](=O)[O-])cc3)o2)C(O)=N1` [dantrolene], the “AβO-induced neuronal CCR” value ([1]; 20 μM dantrolene to block ryanodine receptors, 18 hours AβOs) is reported as “none of those inhibitors blocked CCR”.
For `CC(=O)OCOC(=O)CN(CC(=O)OCOC(C)=O)c1ccccc1OCCOc1ccccc1N(CC(=O)OCOC(C)=O)CC(=O)OCOC(C)=O` [BAPTA-AM, 1,2-Bis(2-aminophenoxy)ethane-N,N,N′,N′-tetraacetic acid tetrakis(acetoxymethyl ester)], the “AβO-induced neuronal CCR” value [1, 3] was “prevented”.

From US20210002650A1, “COMPOSITIONS AND METHODS FOR TREATING ALZHEIMER'S DISEASE” (University of Virginia Patent Foundation, priority 2019, published 2021)
